# Measurements taken from PubChem BioAssay AID1963862 (Molecular Pharmacology Branch, DTP, NCI, 2024).
# pIC50: −log10 of the molar value.
# System: KRAS patient-derived spheroids with HUVEC/MSC, viability
# Experiment: Anticancer human tumor 941728-121-R-J1-PDC patient-derived lung adenocarcinoma cell line growth inhibition [KRAS2]
# Details: for pIC50: curve of first compound; for viability, T/C: stronger effect = lower value
# Method in brief: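 KRAS-mutant tumor cells were grown as spheroids with HUVEC endothelial cells and human MSCs as stroma. Targeted agents were tested alone and with KRAS pathway inhibitors. Doses started at or near clinical Cmax, or 10 microM, descending half-log.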
# [1] = second compound 0.1 µM, first compound 0.01 µM
# [2] = second compound 0.1 µM, first compound 0.0316 µM
# [3] = second compound 0.1 µM, first compound 0.1 µM
# [4] = second compound 0.1 µM, first compound 0.316 µM
# [5] = second compound 0.1 µM, first compound 1 µM
# [6] = second compound 0.1 µM, first compound 3.16 µM
# [7] = second compound 0.316 µM, first compound 0.01 µM
# [8] = second compound 0.316 µM, first compound 0.0316 µM
# [9] = second compound 0.316 µM, first compound 0.1 µM
# [10] = second compound 0.316 µM, first compound 0.316 µM
# [11] = second compound 0.316 µM, first compound 1 µM
# [12] = second compound 0.316 µM, first compound 3.16 µM
# [13] = second compound 1 µM, first compound 0.01 µM
# [14] = second compound 1 µM, first compound 0.0316 µM
# [15] = second compound 1 µM, first compound 0.1 µM
# [16] = second compound 1 µM, first compound 0.316 µM
# [17] = second compound 1 µM, first compound 1 µM
# [18] = second compound 1 µM, first compound 3.16 µM
# [19] = second compound 3.16 µM, first compound 0.01 µM
# [20] = second compound 3.16 µM, first compound 0.0316 µM
# [21] = second compound 3.16 µM, first compound 0.1 µM
# [22] = second compound 3.16 µM, first compound 0.316 µM
# [23] = second compound 3.16 µM, first compound 1 µM
# [24] = second compound 3.16 µM, first compound 3.16 µM
# [25] = second compound 10 µM, first compound 0.01 µM
# [26] = second compound 10 µM, first compound 0.0316 µM
# [27] = second compound 10 µM, first compound 0.1 µM
# [28] = second compound 10 µM, first compound 0.316 µM
# [29] = second compound 10 µM, first compound 1 µM
# [30] = second compound 10 µM, first compound 3.16 µM
# [31] = second compound 0.1 µM, first compound 10 µM
# [32] = second compound 0.316 µM, first compound 10 µM
# [33] = second compound 1 µM, first compound 10 µM
# [34] = second compound 3.16 µM, first compound 10 µM
# [35] = second compound 10 µM, first compound 10 µM
# 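Also: spheroids exposed to agents for seven days before readout.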
Compound,pIC50 (second compound 0.1 µM),pIC50 (second compound 0.316 µM),pIC50 (second compound 1 µM),pIC50 (second compound 3.16 µM),pIC50 (second compound 10 µM),"viability, T/C [2]","viability, T/C [3]","viability, T/C [4]","viability, T/C [5]","viability, T/C [6]","viability, T/C [8]","viability, T/C [9]","viability, T/C [10]","viability, T/C [11]","viability, T/C [14]","viability, T/C [15]","viability, T/C [20]","viability, T/C [21]","viability, T/C [26]","viability, T/C [27]",other results
CC1COCCN1c1cc(-c2ccnn2C)c2ccnc(-c3ccn[nH]3)c2n1 (stereo not given) + CC1OCC2(CCN(c3cnc(Sc4ccnc(N)c4Cl)c(N)n3)CC2)C1N,> 8.00,> 8.00,> 8.00,> 8.00,> 8.00,28.7%,27.2%,26.4%,25.4%,28.2%,30.4%,25.3%,23.1%,19.9%,26.9%,26.5%,25.3%,22.4%,22.9%,19.2%,"viability, T/C [1]: 43.9%; viability, T/C [7]: 32.9%; viability, T/C [12]: 21.6%; viability, T/C [13]: 29.5%; viability, T/C [16]: 22.3%; viability, T/C [17]: 15.8%; viability, T/C [18]: 15.8%; viability, T/C [19]: 26.8%; viability, T/C [22]: 18.8%; viability, T/C [23]: 15.9%; viability, T/C [24]: 13.7%; viability, T/C [25]: 25.4%; viability, T/C [28]: 14.4%; viability, T/C [29]: 12.9%; viability, T/C [30]: 10.9%"
CCNC(=O)CC1N=C(c2ccc(Cl)cc2)c2cc(OC)ccc2-n2c(C)nnc21 (stereo not given) + CC1OCC2(CCN(c3cnc(Sc4ccnc(N)c4Cl)c(N)n3)CC2)C1N,> 7.50,> 7.50,> 7.50,> 7.50,> 7.50,45.2%,44%,31.5%,24.1%,21%,37.2%,32.5%,25.5%,17.2%,32.3%,27.5%,25.7%,20.9%,22.3%,19.1%,"viability, T/C [31]: 22.4%; viability, T/C [12]: 14.8%; viability, T/C [32]: 16.2%; viability, T/C [16]: 30.4%; viability, T/C [17]: 13.2%; viability, T/C [18]: 10.3%; viability, T/C [33]: 8.97%; viability, T/C [22]: 17.8%; viability, T/C [23]: 10.3%; viability, T/C [24]: 8.12%; viability, T/C [34]: 6.43%; viability, T/C [28]: 12%; viability, T/C [29]: 6.42%; viability, T/C [30]: 4.77%; viability, T/C [35]: 4.55%"
Cn1nccc1Nc1nccc(-c2cc3c(s2)C(C)(C)N(CCN2CCOCC2)C3=O)n1 + CC1OCC2(CCN(c3cnc(Sc4ccnc(N)c4Cl)c(N)n3)CC2)C1N,7.32,> 7.50,> 7.50,> 7.50,> 7.50,53.7%,43.2%,38.1%,36%,29.2%,45.1%,41.5%,34.3%,34.9%,38.2%,39.2%,33.5%,30.4%,29%,29.5%,"viability, T/C [31]: 35.1%; viability, T/C [12]: 25.8%; viability, T/C [32]: 25%; viability, T/C [16]: 31.3%; viability, T/C [17]: 30%; viability, T/C [18]: 23.8%; viability, T/C [33]: 18.9%; viability, T/C [22]: 30.9%; viability, T/C [23]: 24.4%; viability, T/C [24]: 16.3%; viability, T/C [34]: 18.3%; viability, T/C [28]: 21.5%; viability, T/C [29]: 15.6%; viability, T/C [30]: 10.8%; viability, T/C [35]: 13.1%"
CC(=O)OC12COC1CC(O)C1(C)C(=O)C(O)C3=C(C)C(OC(=O)C(O)C(NC(=O)OC(C)(C)C)c4ccccc4)CC(O)(C(OC(=O)c4ccccc4)C21)C3(C)C (stereo not given) + CNCc1ccccc1-c1csc(C(C)Nc2nc(C)nc3cc(OC)c(OC)cc23)c1,> 8.00,> 8.00,> 8.00,> 8.00,> 8.00,37.4%,32%,38.3%,34.3%,41.8%,28%,27%,25.9%,29.3%,34.3%,34.5%,0.11%,0.09%,0.09%,0.1%,"viability, T/C [1]: 35.7%; viability, T/C [7]: 28%; viability, T/C [12]: 30.2%; viability, T/C [13]: 29.2%; viability, T/C [16]: 36%; viability, T/C [17]: 38%; viability, T/C [18]: 33%; viability, T/C [19]: 18.7%; viability, T/C [22]: 0.11%; viability, T/C [23]: 0.1%; viability, T/C [24]: 31.5%; viability, T/C [25]: 0.14%; viability, T/C [28]: 0.13%; viability, T/C [29]: 28.4%; viability, T/C [30]: 0.21%"
CN(C)C/C=C/C(=O)Nc1cc2c(Nc3ccc(F)c(Cl)c3)ncnc2cc1O[C@H]1CCOC1 + CNCc1ccccc1-c1csc(C(C)Nc2nc(C)nc3cc(OC)c(OC)cc23)c1,> 9.50,> 9.50,> 9.50,> 9.50,> 9.50,31.6%,35.6%,,,,25.6%,29.9%,,,20.6%,19.4%,0.13%,0.18%,0.04%,0.32%,"viability, T/C (second compound 0.1 µM, first compound 0.000316 µM): 44%; viability, T/C (second compound 0.1 µM, first compound 0.001 µM): 45.9%; viability, T/C (second compound 0.1 µM, first compound 0.00316 µM): 36.2%; viability, T/C [1]: 34.6%; viability, T/C (second compound 0.316 µM, first compound 0.000316 µM): 32.6%; viability, T/C (second compound 0.316 µM, first compound 0.001 µM): 24.5%; viability, T/C (second compound 0.316 µM, first compound 0.00316 µM): 28.5%; viability, T/C [7]: 23.8%; viability, T/C (second compound 1 µM, first compound 0.000316 µM): 20.5%; viability, T/C (second compound 1 µM, first compound 0.001 µM): 19.6%; viability, T/C (second compound 1 µM, first compound 0.00316 µM): 18.5%; viability, T/C [13]: 19.6%; viability, T/C (second compound 3.16 µM, first compound 0.000316 µM): 0.61%; viability, T/C (second compound 3.16 µM, first compound 0.001 µM): 0.24%; viability, T/C (second compound 3.16 µM, first compound 0.00316 µM): 0.15%; viability, T/C [19]: 0.14%; viability, T/C (second compound 10 µM, first compound 0.000316 µM): 0.05%; viability, T/C (second compound 10 µM, first compound 0.001 µM): 0.04%; viability, T/C (second compound 10 µM, first compound 0.00316 µM): 0.04%; viability, T/C [25]: 0.08%"
O=C(c1cc(Cc2n[nH]c(=O)c3ccccc23)ccc1F)N1CCN(C(=O)C2CC2)CC1 + CNCc1ccccc1-c1csc(C(C)Nc2nc(C)nc3cc(OC)c(OC)cc23)c1,< 5.00,> 7.50,> 7.50,> 7.50,> 7.50,59%,65.2%,53.3%,54.6%,65.6%,47.1%,45.5%,52.7%,55.1%,40.2%,48%,0.61%,1.87%,0.42%,0.09%,"viability, T/C [31]: 67.8%; viability, T/C [12]: 51.4%; viability, T/C [32]: 67%; viability, T/C [16]: 47.3%; viability, T/C [17]: 51.7%; viability, T/C [18]: 49.8%; viability, T/C [33]: 58.5%; viability, T/C [22]: 0.81%; viability, T/C [23]: 0.22%; viability, T/C [24]: 2.29%; viability, T/C [34]: 0.22%; viability, T/C [28]: 0.09%; viability, T/C [29]: 0.09%; viability, T/C [30]: 0.2%; viability, T/C [35]: 0.14%"
